Measured values published in paper PMC10525135, “Computationally Designed AMPs with Antibacterial and Antibiofilm Activity against MDR Acinetobacter baumannii” (Antibiotics, 2023).
≈ marks a conversion by molar mass, not a printed value. Like-named read-outs stand apart in the source and are kept apart here. Residues, ends and D or L forms follow the SMILES beside them.

Columns and labels:
[1] = test system: A. baumannii BAA-1800 biofilm; conditions: A. baumannii BAA-1800, TSB, 24 h 37 °C
Procedure: The MBIC assay measures the lowest concentration of a compound that inhibits the biofilm formation of an organism. A series of decreasing peptide concentrations starting from 64 μg/mL to 0.25 μg/mL (100 µL) were incubated with 1 × 10^5 CFU of A. baumannii in 100 µL of Tryptic Soy broth (TSB) in a polystyrene 96-well plate (Falcon 353072, Corning, NY, USA) for 24 h at 37 °C to assess biofilm formation inhibition, as described previously with minor modifications. After the incubation of bacteria with AMPs, OD600 nm was measured for approximate bacterial growth. Media were carefully removed, and wells (n = 3) were rinsed with tap water. Plates were heat-fixed at 70 °C for 1 h, and 200 µL of 0.1% crystal violet diluted in deionized water were added to wells and allowed to incubate for 15 min. Excess stain was rinsed off with tap water, and the plates were air-dried. After that, 200 µL of 33% glacial acetic acid was added to resolubilize the stain, and biofilm mass was measured by a spectrophotometric reading at OD590. Bacteria alone (no treatment) served as the 100% biofilm control, and media alone and media with a peptide/drug were used as the sterility control and the 0% biofilm control.

AB5075 = assay: Membrane depolarization assay (DiSC3(5)); assay type: cell-based, Acinetobacter baumannii; conditions: 50 µg/mL, DiSC3(5) fluorescence, 20 min, versus untreated bacteria
Procedure: A membrane depolarization assay was performed using a cationic dye, 3,3′-dipropylthiadicarbocyanine iodide (DiSC3(5)) as we previously described, with some modifications. Briefly, AB5075 was grown overnight on a Tryptic Soy agar, and opaque colonies were emulsified in DPBS (Gibco) until the 0.5 McFarland standard was achieved (~1 × 10^8 CFU/mL). A bacterial suspension of 4 × 10^7 CFU/mL was prepared and washed twice with DPBS, and then bacteria were resuspended in DPBS containing 10 µg/mL of DiSC3(5). An aliquot of 100 µL of the bacteria DiSC3(5) suspension was added to a black 96-well flat plate (Ultracruz Polypropylene Microplate sc-204462, Santacruz, CA, USA). The plate was incubated at room temperature in BioTek Cytation 5 and monitored until fluorescence stopped decreasing. An aliquot of 100 µL of peptide or DPBS (the untreated control) was added to each well (a final concentration of peptide of 50 µg/mL) and the plate was immediately returned to the plate reader. […] Readings were taken every 15 s for 20 min (excitation = 622 nm; emission = 670 nm). The experiment was repeated twice.

[2] = test system: AB5075 pre-formed (24 h) biofilm; assay type: cell-based, Acinetobacter baumannii
Procedure: The MBEC assay measures the lowest concentration of an antimicrobial agent that can eradicate established biofilms. Using the MBEC assay in the Biofilm Inoculator 96-well base (Innovotech Cat #1911, Edmonton, AB, Canada) and following the manufacturer’s protocol, 150 µL (n = 6) of 1 × 10^6 CFU/mL of AB5075 in TSB was incubated for 24 h at 37 °C at 110 rpm for biofilm formation. The lid containing pegs was rinsed with sterile PBS for 5 min, and then the lid was placed in a peptide challenge polypropylene 96-well plate containing a decreasing series of drug concentrations and incubated for 24 h at 37 °C at 110 rpm. Pegs were washed three times with tap water, heat-fixed for 70 °C for 1 h, and stained with 0.1% crystal violet for 15 min. Excess stain was rinsed off with tap water and allowed to dry. Stained pegs were resolubilized with 200 µL of 33% glacial acetic acid. OD590 was obtained to measure the remaining biofilm. Pegs with only bacteria served as the growth control and 100% biofilm control. Media alone and media with a peptide/drug served as the sterility controls. […] The experiment was performed twice.

A. baumannii AB5075 = assay: Time-kill kinetics; assay type: cell-based, Acinetobacter baumannii; conditions: AB5075, highest concentration (5 µg/mL)
Description: (§1) At the various timepoints, samples were serially diluted, and CFUs were counted by spot plating on a Tryptic Soy agar.

A. baumannii BAA-1710 [3] = assay: Time-kill kinetics; assay type: cell-based, Acinetobacter baumannii; conditions: BAA-1710, all tested concentrations (1×, 5×, 10× MIC; MIC = 0.5 µg/mL)
Description: as §1

[4] = test system: A. baumannii strains AB5075, BAA-1710, -1794, and -1800; assay type: cell-based, Acinetobacter baumannii; conditions: summary over MDR A. baumannii strains of Table 3
Procedure: (§2) Minimum inhibitory concentration (n = 3) was performed according to the CLSI protocols with a minor modification, in which Difco Mueller Hinton broth (BD 275730, Franklin Lakes, NJ, USA) was used instead of cation-adjusted Mueller Hinton broth following Wiegand et al.’s standardized protocol for testing AMPs. Bacteria were grown overnight in an opaque colony, and the concentration was determined using McFarland’s technique. An aliquot of 50 µL of 1 × 10^6 CFU/mL of bacteria was incubated with a decreasing series of peptide concentration to achieve a final bacterial concentration of 5 × 10^5 CFU/mL at 37 °C 5% CO2 for 20–24 h in Difco Mueller Hinton broth. Dilutions were performed in a 96-well polypropylene plate (Corning 3879, Corning, NY, USA). This is critical to avoid peptide binding to the plate. Results were obtained by measuring bacterial growth at OD600 nm. LL-37 and polymyxin B were used as positive controls. Samples containing only the medium and medium with peptides were used as the sterility controls and samples containing only bacteria in MHB served as the growth control. Each experiment was performed twice, and one representative experiment is shown.

[5] = test system: A. baumannii AB5075 (MRSN959); assay type: cell-based, Acinetobacter baumannii
Procedure: as §2

A. baumannii BAA-1794 = assay type: cell-based, Acinetobacter baumannii; conditions: A. baumannii BAA-1794; Difco Mueller Hinton broth, 5 × 10^5 CFU/mL, 37 °C 5% CO2, 20–24 h, OD600, n = 3
Procedure: as §2

A. baumannii BAA-1710 [6] = assay type: cell-based, Acinetobacter baumannii; conditions: A. baumannii BAA-1710; Difco Mueller Hinton broth, 5 × 10^5 CFU/mL, 37 °C 5% CO2, 20–24 h, OD600, n = 3
Procedure: as §2

A. baumannii BAA-1800 = assay type: cell-based, Acinetobacter baumannii; conditions: A. baumannii BAA-1800; Difco Mueller Hinton broth, 5 × 10^5 CFU/mL, 37 °C 5% CO2, 20–24 h, OD600, n = 3
Procedure: as §2

## CC[C@H](C)CCCCC(=O)N[C@@H](CCN)C(=O)N[C@H](C(=O)N[C@@H](CCN)C(=O)N[C@H]1CCNC(=O)[C@H]([C@@H](C)O)NC(=O)[C@H](CCN)NC(=O)[C@H](CCN)NC(=O)[C@H](CC(C)C)NC(=O)[C@@H](Cc2ccccc2)NC(=O)[C@H](CCN)NC1=O)[C@@H](C)O [Polymyxin B] (HELM PEPTIDE1{[CC[C@H](C)CCCCC(=O)[*:2]].[Dab].T.[Dab].[Dab].[Dab].[dF].L.[Dab].[Dab].T}$PEPTIDE1,PEPTIDE1,5:R3-11:R2$$$V2.0; N-terminus assumed; bridges inferred)
[1]; crystal violet
  MBEC50: 2 µg/mL
[1]; polystyrene plate, crystal violet OD590, n = 3
  MBIC100: 1 µg/mL
AB5075
  Membrane depolarization: significant membrane depolarization effect
[2]; AB5075 pre-formed biofilm, CFU determination
  Concentration giving complete eradication of bacteria (reduction in CFU) in pre-formed biofilms: 2 µg/mL
[2]; MBEC100, AB5075 24 h pre-formed biofilm on pegs, 24 h challenge, crystal violet OD590, n = 6
  MBEC: * 2 µg/mL
[2]; treated with between 2 and 16 µg/mL, AB5075 pre-formed biofilm
  crystal violet-stained biofilm mass maintained: up to 40%
A. baumannii AB5075
  Time to complete killing: ≤ 3 h
A. baumannii BAA-1710 [3]
  Killing within 3 h: failed to kill
[4]
  MIC across the tested strains: 0.25 to 0.5 mg/L
[5]; A. baumannii AB5075 (MRSN959), Difco Mueller Hinton broth, 5 × 10^5 CFU/mL, 37 °C 5% CO2, 20–24 h, OD600, n = 3
  MIC: 0.25 to 0.5 mg/L
[5]; A. baumannii AB5075, experiment shown in Figure S2
  MIC: 0.5 mg/L (≈ 0.415 µM)
A. baumannii BAA-1794
  MIC: 0.5 mg/L (≈ 0.415 µM)
A. baumannii BAA-1710 [6]
  MIC: 0.5 mg/L (≈ 0.415 µM)
A. baumannii BAA-1800
  MIC: 0.5 mg/L (≈ 0.415 µM)
